# Experimental data published in patent US20220162167A1, “SUBSTITUTED BICYCLIC AND TETRACYCLIC QUINONES AND USE THEREOF AS ANTI-CANCER AGENTS” (THE REGENTS OF THE UNIVERSITY OF MICHIGAN, priority 2019, published 2022).
# Key:
# Format in all cases: cell-based
# MCF7 = assay: NCI60 growth inhibition, MCF7; conditions: Breast Cancer
# Protocol: (§1) Representative compounds were tested in 60 cell lines (NCI60) at the National Cancer Institute, Developmental Therapeutics Program.
# (§2) Representative compounds were tested in a panel of 60 cancer cells (NCI 60) at the National Cancer Institute. Growth inhibition are shown in table 2, table 3, table 4, table 5, and FIG. 1, FIG. 2, FIG. 3, FIG. 4, FIG. 5.
# NCI-H460 = assay: NCI60 growth inhibition, NCI-H460; conditions: Non-Small Cell Lung Cancer
# Protocol: as §1, §2
# OVCAR-5 = assay: NCI60 growth inhibition, OVCAR-5; conditions: Ovarian Cancer
# Protocol: as §1, §2
# SK-OV-3 = assay: NCI60 growth inhibition, SK-OV-3; conditions: Ovarian Cancer
# Protocol: as §1, §2
# SR = assay: NCI60 growth inhibition, SR; conditions: Leukemia
# Protocol: as §1, §2
# NCI-H23 = assay: NCI60 growth inhibition, NCI-H23; conditions: Non-Small Cell Lung Cancer
# Protocol: as §1, §2
# RPMI-8226 = assay: NCI60 growth inhibition, RPMI-8226; conditions: Leukemia
# Protocol: as §1, §2
# OVCAR-3 = assay: NCI60 growth inhibition, OVCAR-3; conditions: Ovarian Cancer
# Protocol: as §1, §2
# HOP-92 = assay: NCI60 growth inhibition, HOP-92; conditions: Non-Small Cell Lung Cancer
# Protocol: as §1, §2
# M14 = assay: NCI60 growth inhibition, M14; conditions: Melanoma
# Protocol: as §1, §2
# SNB-19 = assay: NCI60 growth inhibition, SNB-19; conditions: CNS Cancer; also: test concentration or dose not given here
# Protocol: as §1, §2
# HCC-2998 = assay: NCI60 growth inhibition, HCC-2998; conditions: Colon Cancer
# Protocol: as §1, §2
# TK-10 = assay: NCI60 growth inhibition, TK-10; conditions: Renal Cancer
# Protocol: as §1, §2
# HOP-62 = assay: NCI60 growth inhibition, HOP-62; conditions: Non-Small Cell Lung Cancer; also: test concentration or dose not given here
# Protocol: as §1, §2
# CAKI-1 = assay: NCI60 growth inhibition, CAKI-1; conditions: Renal Cancer; also: test concentration or dose not given here
# Protocol: as §1, §2
# MDA-MB-435 = assay: NCI60 growth inhibition, MDA-MB-435; conditions: Melanoma
# Protocol: as §1, §2
# NCI-H226 = assay: NCI60 growth inhibition, NCI-H226; conditions: Non-Small Cell Lung Cancer; also: test concentration or dose not given here
# Protocol: as §1, §2
# SN12C = assay: NCI60 growth inhibition, SN12C; conditions: Renal Cancer
# Protocol: as §1, §2
# SK-MEL-28 = assay: NCI60 growth inhibition, SK-MEL-28; conditions: Melanoma
# Protocol: as §1, §2
# PC-3 = assay: NCI60 growth inhibition, PC-3; conditions: Prostate Cancer
# Protocol: as §1, §2
# U251 = assay: NCI60 growth inhibition, U251; conditions: CNS Cancer
# Protocol: as §1, §2
# A549/ATCC = assay: NCI60 growth inhibition, A549/ATCC; conditions: Non-Small Cell Lung Cancer
# Protocol: as §1, §2
# SNB-75 = assay: NCI60 growth inhibition, SNB-75; conditions: CNS Cancer; also: test concentration or dose not given here
# Protocol: as §1, §2
# HL-60(TB) = assay: NCI60 growth inhibition, HL-60(TB); conditions: Leukemia
# Protocol: as §1, §2
# T-47D = assay: NCI60 growth inhibition, T-47D; conditions: Breast Cancer
# Protocol: as §1, §2
# KM12 = assay: NCI60 growth inhibition, KM12; conditions: Colon Cancer; also: test concentration or dose not given here
# Protocol: as §1, §2
# COLO 205 = assay: NCI60 growth inhibition, COLO 205; conditions: Colon Cancer
# Protocol: as §1, §2
# ACHN = assay: NCI60 growth inhibition, ACHN; conditions: Renal Cancer
# Protocol: as §1, §2
# HCT-116 = assay: NCI60 growth inhibition, HCT-116; conditions: Colon Cancer
# Protocol: as §1, §2
# SF-539 = assay: NCI60 growth inhibition, SF-539; conditions: CNS Cancer
# Protocol: as §1, §2
# NCI-H522 = assay: NCI60 growth inhibition, NCI-H522; conditions: Non-Small Cell Lung Cancer
# Protocol: as §1, §2
# MOLT-4 = assay: NCI60 growth inhibition, MOLT-4; conditions: Leukemia
# Protocol: as §1, §2
# 786-0 = assay: NCI60 growth inhibition, 786-0; conditions: Renal Cancer
# Protocol: as §1, §2
# HCT-15 = assay: NCI60 growth inhibition, HCT-15; conditions: Colon Cancer; also: test concentration or dose not given here
# Protocol: as §1, §2
# HT29 = assay: NCI60 growth inhibition, HT29; conditions: Colon Cancer
# Protocol: as §1, §2
# MDA-MB-468 = assay: NCI60 growth inhibition, MDA-MB-468; conditions: Breast Cancer; also: test concentration or dose not given here
# Protocol: as §1, §2
# SK-MEL-2 = assay: NCI60 growth inhibition, SK-MEL-2; conditions: Melanoma; also: test concentration or dose not given here
# Protocol: as §1, §2
# UACC-62 = assay: NCI60 growth inhibition, UACC-62; conditions: Melanoma; also: test concentration or dose not given here
# Protocol: as §1, §2
# DU-145 = assay: NCI60 growth inhibition, DU-145; conditions: Prostate Cancer
# Protocol: as §1, §2
# HS 578T = assay: NCI60 growth inhibition, HS 578T; conditions: Breast Cancer
# Protocol: as §1, §2
# K-562 = assay: NCI60 growth inhibition, K-562; conditions: Leukemia
# Protocol: as §1, §2
# CCRF-CEM = assay: NCI60 growth inhibition, CCRF-CEM; conditions: Leukemia
# Protocol: as §1, §2
# OVCAR-4 = assay: NCI60 growth inhibition, OVCAR-4; conditions: Ovarian Cancer; also: test concentration or dose not given here
# Protocol: as §1, §2
# SF-268 = assay: NCI60 growth inhibition, SF-268; conditions: CNS Cancer; also: test concentration or dose not given here
# Protocol: as §1, §2
# SF-295 = assay: NCI60 growth inhibition, SF-295; conditions: CNS Cancer; also: test concentration or dose not given here
# Protocol: as §1, §2
# NCI-H322M = assay: NCI60 growth inhibition, NCI-H322M; conditions: Non-Small Cell Lung Cancer
# Protocol: as §1, §2
# SW-620 = assay: NCI60 growth inhibition, SW-620; conditions: Colon Cancer; also: test concentration or dose not given here
# Protocol: as §1, §2
# MDA-MB-231/ATCC = assay: NCI60 growth inhibition, MDA-MB-231/ATCC; conditions: Breast Cancer
# Protocol: as §1, §2
# BT-549 = assay: NCI60 growth inhibition, BT-549; conditions: Breast Cancer
# Protocol: as §1, §2
# UO-31 = assay: NCI60 growth inhibition, UO-31; conditions: Renal Cancer
# Protocol: as §1, §2
# SK-MEL-5 = assay: NCI60 growth inhibition, SK-MEL-5; conditions: Melanoma
# Protocol: as §1, §2
# EKVX = assay: NCI60 growth inhibition, EKVX; conditions: Non-Small Cell Lung Cancer
# Protocol: as §1, §2
# NCI/ADR-RES = assay: NCI60 growth inhibition, NCI/ADR-RES; conditions: Ovarian Cancer
# Protocol: as §1, §2
# UACC-257 = assay: NCI60 growth inhibition, UACC-257; conditions: Melanoma; also: test concentration or dose not given here
# Protocol: as §1, §2
# A498 = assay: NCI60 growth inhibition, A498; conditions: Renal Cancer; also: test concentration or dose not given here
# Protocol: as §1, §2
# IGROV1 = assay: NCI60 growth inhibition, IGROV1; conditions: Ovarian Cancer
# Protocol: as §1, §2
# LOX IMVI = assay: NCI60 growth inhibition, LOX IMVI; conditions: Melanoma
# Protocol: as §1, §2
# MALME-3M = assay: NCI60 growth inhibition, MALME-3M; conditions: Melanoma
# Protocol: as §1, §2
compound,measurement,setting,value
"CN1CCN(c2cc(F)c(NC3=C(Cl)C(=O)c4ncccc4C3=O)c(F)c2)CC1 [Compound 1, 7-chloro-6-((2,6-difluoro-4-(4-methylpiperazin-1-yl)phenyl)amino)quinoline-5,8-dione]",Growth inhibition (% control) GIPRCNT,MCF7,−58.1831 % control
same,Growth inhibition (% control) GIPRCNT,NCI-H460,9.912 % control
same,Growth inhibition (% control) GIPRCNT,OVCAR-5,−59.8079 % control
same,Growth inhibition (% control) GIPRCNT,SK-OV-3,82.67 % control
same,Growth inhibition (% control) GIPRCNT,SR,−0.8134 % control
same,Growth inhibition (% control) GIPRCNT,NCI-H23,−61.2055 % control
same,Growth inhibition (% control) GIPRCNT,RPMI-8226,−20.7257 % control
same,Growth inhibition (% control) GIPRCNT,OVCAR-3,−98.2241 % control
same,Growth inhibition (% control) GIPRCNT,HOP-92,−79.9407 % control
same,Growth inhibition (% control) GIPRCNT,M14,−40.5376 % control
same,Growth inhibition (% control) GIPRCNT,SNB-19,96.33 % control
same,Growth inhibition (% control) GIPRCNT,HCC-2998,61.85 % control
same,Growth inhibition (% control) GIPRCNT,TK-10,8.462 % control
same,Growth inhibition (% control) GIPRCNT,HOP-62,83.28 % control
same,Growth inhibition (% control) GIPRCNT,CAKI-1,−85.6094 % control
same,Growth inhibition (% control) GIPRCNT,MDA-MB-435,−75.7981 % control
same,Growth inhibition (% control) GIPRCNT,NCI-H226,85.32 % control
same,Growth inhibition (% control) GIPRCNT,SN12C,−97.4828 % control
same,Growth inhibition (% control) GIPRCNT,SK-MEL-28,−55.0718 % control
same,Growth inhibition (% control) GIPRCNT,PC-3,11.83 % control
same,Growth inhibition (% control) GIPRCNT,U251,−9.877 % control
same,Growth inhibition (% control) GIPRCNT,A549/ATCC,74.56 % control
same,Growth inhibition (% control) GIPRCNT,SNB-75,38.01 % control
same,Growth inhibition (% control) GIPRCNT,HL-60(TB),−26.4294 % control
same,Growth inhibition (% control) GIPRCNT,T-47D,−32.5382 % control
same,Growth inhibition (% control) GIPRCNT,KM12,82.37 % control
same,Growth inhibition (% control) GIPRCNT,COLO 205,33.98 % control
same,Growth inhibition (% control) GIPRCNT,ACHN,−93.058 % control
same,Growth inhibition (% control) GIPRCNT,HCT-116,−69.7462 % control
same,Growth inhibition (% control) GIPRCNT,SF-539,−25.0889 % control
same,Growth inhibition (% control) GIPRCNT,NCI-H522,−59.746 % control
same,Growth inhibition (% control) GIPRCNT,MOLT-4,−22.6883 % control
same,Growth inhibition (% control) GIPRCNT,786-0,−72.0362 % control
same,Growth inhibition (% control) GIPRCNT,HCT-15,−8.531 % control
same,Growth inhibition (% control) GIPRCNT,HT29,11.1525 % control
same,Growth inhibition (% control) GIPRCNT,MDA-MB-468,−73.911 % control
same,Growth inhibition (% control) GIPRCNT,SK-MEL-2,−49.6035 % control
same,Growth inhibition (% control) GIPRCNT,UACC-62,−45.6278 % control
same,Growth inhibition (% control) GIPRCNT,DU-145,−67.5681 % control
same,Growth inhibition (% control) GIPRCNT,HS 578T,−16.4793 % control
same,Growth inhibition (% control) GIPRCNT,K-562,−0.8345 % control
same,Growth inhibition (% control) GIPRCNT,CCRF-CEM,−18.2389 % control
same,Growth inhibition (% control) GIPRCNT,OVCAR-4,−99.2407 % control
same,Growth inhibition (% control) GIPRCNT,SF-268,48.73 % control
same,Growth inhibition (% control) GIPRCNT,SF-295,78.81 % control
same,Growth inhibition (% control) GIPRCNT,NCI-H322M,101.8249 % control
same,Growth inhibition (% control) GIPRCNT,SW-620,−76.6429 % control
same,Growth inhibition (% control) GIPRCNT,MDA-MB-231/ATCC,−31.9795 % control
same,Growth inhibition (% control) GIPRCNT,BT-549,80.52 % control
same,Growth inhibition (% control) GIPRCNT,UO-31,−100 % control
same,Growth inhibition (% control) GIPRCNT,SK-MEL-5,−91.7268 % control
same,Growth inhibition (% control) GIPRCNT,EKVX,−82.6636 % control
same,Growth inhibition (% control) GIPRCNT,NCI/ADR-RES,37.87 % control
same,Growth inhibition (% control) GIPRCNT,UACC-257,−62.2412 % control
same,Growth inhibition (% control) GIPRCNT,A498,80.11 % control
same,Growth inhibition (% control) GIPRCNT,IGROV1,−90.4429 % control
same,Growth inhibition (% control) GIPRCNT,LOX IMVI,−70.2674 % control
same,Growth inhibition (% control) GIPRCNT,MALME-3M,−96.0656 % control
